24 compounds from PubChem BioAssay AID192 (DTP/NCI, 2004) can be followed below.

For this test, the system named is BDF1 mice, B16 melanoma ip, median survival T/C. Nature of the test: NCI In Vivo Anticancer Drug Screen. Data for tumor model B16 Melanoma (intraperitoneal) in B6D2F1 (BDF1) mice. To be noted: endpoint: median survival time, higher = longer survival. The gist of the method: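 The ratio T/C compares compound-treated mice with vehicle-treated controls, using survival or tumor size as the endpoint in a transplantable tumor model.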

Where [1] appears, read: dose: 6.25 mg/kg/injection, schedule: Q01DX009 (ip), vehicle: saline.
Where [2] appears, read: dose: 5.0 mg/kg/injection, schedule: Q01DX009 (ip), vehicle: saline.
Setting [3] is: dose: 100.0 mg/kg/injection, schedule: Q01DX009 (ip), vehicle: saline with Tween-80.
[4] abbreviates: dose: 100.0 mg/kg/injection, schedule: Q01DX009 (ip), vehicle: Klucel (hydroxypropylcellulose) (HPC).
[5] abbreviates: dose: 200.0 mg/kg/injection, schedule: Q01DX009 (ip), vehicle: Klucel (hydroxypropylcellulose) (HPC).
The mark [6] stands for this setting: dose: 400.0 mg/kg/injection, schedule: Q01DX009 (ip), vehicle: Klucel (hydroxypropylcellulose) (HPC).
Setting [7] is: dose: 50.0 mg/kg/injection, schedule: Q01DX009 (ip), vehicle: saline with Tween-80.
Where [8] appears, read: dose: 25.0 mg/kg/injection, schedule: Q01DX009 (ip), vehicle: saline with Tween-80.
Setting [9] is: dose: 12.5 mg/kg/injection, schedule: Q01DX009 (ip), vehicle: saline.
The mark [10] stands for this setting: dose: 25.0 mg/kg/injection, schedule: Q01DX009 (ip), vehicle: saline.
The mark [11] stands for this setting: dose: 50.0 mg/kg/injection, schedule: Q01DX009 (ip), vehicle: saline.
Setting [12] is: dose: 12.5 mg/kg/injection, schedule: Q01DX009 (ip), vehicle: Klucel (hydroxypropylcellulose) (HPC).
Setting [13] is: dose: 25.0 mg/kg/injection, schedule: Q01DX009 (ip), vehicle: Klucel (hydroxypropylcellulose) (HPC).

SMILES strings stand for the structures. Where “and” joins values, the source holds several entries; their conditions need not be identical. Equal values may be shown once. Toxic doses and inconclusive results are not listed.

`FC(F)(F)c1ccc2c(c1)N(CCCN1CCN(CCN3CCCCC3)CC1)c1ccccc1S2`: the T/C reads like this: (dose: 0.78 mg/kg/injection, schedule: Q01DX009 (ip), vehicle: saline) 100 % of control; (dose: 1.56 mg/kg/injection, schedule: Q01DX009 (ip), vehicle: saline) 105 % of control; under setting [1], 97 % of control.
For `C=CCN(CC=C)C(=O)CCN1CC1`, the T/C by setting is: (dose: 1.25 mg/kg/injection, schedule: Q01DX009 (ip), vehicle: saline) 100 % of control; (dose: 1.25 mg/kg/injection, schedule: Q04DX003 (ip), vehicle: saline) 102 % of control; (dose: 2.5 mg/kg/injection, schedule: Q01DX009 (ip), vehicle: saline) 100 % of control; (dose: 2.5 mg/kg/injection, schedule: Q04DX003 (ip), vehicle: saline) 100 % of control; under setting [2], 100 % of control; (dose: 5.0 mg/kg/injection, schedule: Q04DX003 (ip), vehicle: saline) 105 % of control.
Turning to `O=Cc1ccc(/C=C2\C=Cc3ccccc32)cc1`, the T/C under setting [3] was 97 % of control.
In the case of `COc1ccc(N=C(N)NC#N)cc1`, the T/C runs as follows: under setting [4], 105 % of control; under setting [5], 99 % of control.
As to `O=C(C(=O)c1cc(Br)ccc1O)c1cc(Br)ccc1O`, the T/C under setting [4] is 96 % of control and the T/C under setting [5] is 106 % of control.
For the compound `O=[N+]([O-])c1ccc2c(c1)=N/C(=N\c1nc(O)c(O)[nH]1)N=2`, the T/C is 86 % of control under setting [4], 100 % of control under setting [5] and 103 % of control under setting [6].
As for `COc1ccc(C(C)=O)cc1[N+](=O)[O-]`, the T/C runs as follows: under setting [7], 97 % of control; under setting [3], 102 % of control; (dose: 200.0 mg/kg/injection, schedule: Q01DX009 (ip), vehicle: saline with Tween-80) 105 % of control.
In the case of `CCCCn1cnc2c(SC)ncnc21`, the T/C by setting is: under setting [8], 90 % of control and 115 % of control; under setting [7], 87 % of control and 111 % of control; under setting [3], 92 % of control and 115 % of control.
Regarding `CC1C(=O)OCC2=CCN3CCC(OC(=O)C(C)C1(C)O)C23` (stereo unspecified), the T/C is, setting by setting: under setting [2], 109 % of control; (dose: 10.0 mg/kg/injection, schedule: Q01DX009 (ip), vehicle: saline) 111 % of control; under setting [9], 123 % of control; (dose: 20.0 mg/kg/injection, schedule: Q01DX009 (ip), vehicle: saline) 111 % of control; under setting [10], 121 % of control; (dose: 40.0 mg/kg/injection, schedule: Q01DX009 (ip), vehicle: saline) 109 % of control. Further, the T/C under setting [11] was 121 % of control.
`CCOC(=O)C(C)Nc1ccccc1` (stereo unspecified): the T/C was 102 % of control under setting [4]; 91 % of control under setting [5]; 121 % of control (dose: 300.0 mg/kg/injection, schedule: Q01DX009 (ip), vehicle: Klucel (hydroxypropylcellulose) (HPC)).
As to `N=C(N)SCCCN`, the T/C by setting is: (dose: 100.0 mg/kg/injection, schedule: Q04DX003 (ip), vehicle: saline) 109 % of control; (dose: 200.0 mg/kg/injection, schedule: Q01DX009 (ip), vehicle: saline) 93 % of control; (dose: 200.0 mg/kg/injection, schedule: Q04DX003 (ip), vehicle: saline) 104 % of control.
Consider `Cc1ccc(S(=O)(=O)N/N=C(\C(=O)O)c2ccccc2)cc1`, for which the T/C under setting [12] was 95 % of control; the T/C under setting [13] is 87 % of control and 88 % of control; the T/C (dose: 50.0 mg/kg/injection, schedule: Q01DX009 (ip), vehicle: Klucel (hydroxypropylcellulose) (HPC)) was 91 % of control; the T/C under setting [4] is 89 % of control.
For the compound `c1ccc([B-]2([C+]3CCCCC3)N3CCCCC3C3CCCCN32)cc1` (stereo unspecified), the T/C was 106 % of control under setting [12] and 93 % of control under setting [13].
`CCC(CC)(COS(=O)(=O)c1ccc(C)cc1)COS(=O)(=O)c1ccc(C)cc1`: the T/C under setting [4] is 100 % of control, the T/C under setting [5] is 93 % of control and the T/C under setting [6] is 93 % of control.
In the case of `Nc1ccc(S(=O)(=O)Nc2cccc3ccccc23)cc1`, the T/C is, setting by setting: under setting [4], 100 % of control; under setting [5], 100 % of control; under setting [6], 96 % of control.
Consider `COC(=O)[C@H]1[C@H]2C[C@@H]3c4[nH]c5cc(OC)ccc5c4CCN3C[C@H]2C[C@@H](OC(=O)/C=C/c2cc(OC)c(OC)c(OC)c2)[C@@H]1OC`, for which the T/C was 90 % of control (dose: 0.09 mg/kg/injection, schedule: Q01DX009 (ip), vehicle: Klucel (hydroxypropylcellulose) (HPC)); 94 % of control (dose: 0.19 mg/kg/injection, schedule: Q01DX009 (ip), vehicle: Klucel (hydroxypropylcellulose) (HPC)); 94 % of control and 100 % of control (dose: 0.39 mg/kg/injection, schedule: Q01DX009 (ip), vehicle: Klucel (hydroxypropylcellulose) (HPC)); 86 % of control and 90 % of control (dose: 0.78 mg/kg/injection, schedule: Q01DX009 (ip), vehicle: Klucel (hydroxypropylcellulose) (HPC)); 87 % of control and 93 % of control (dose: 1.56 mg/kg/injection, schedule: Q01DX009 (ip), vehicle: Klucel (hydroxypropylcellulose) (HPC)).
With `CC(C)[NH-].CC(C)[NH-].O.O.[Cl][Pt+2][Cl]`, the T/C is, setting by setting: (dose: 3.12 mg/kg/injection, schedule: Q01DX009 (ip), vehicle: dextrose) 118 % of control; (dose: 3.13 mg/kg/injection, schedule: Q01DX009 (ip), vehicle: dextrose) 122 % of control; (dose: 12.5 mg/kg/injection, schedule: Q01DX009 (ip), vehicle: dextrose) 164 % of control and 168 % of control.
With `Cc1ccc(S(=O)(=O)NC(CSCc2ccccc2)C(=O)O)cc1` (stereo unspecified), the T/C was 92 % of control under setting [7] and 86 % of control under setting [3].
In the case of `C=C(Br)CN(CC)CC`, the T/C was 100 % of control (dose: 6.25 mg/kg/injection, schedule: Q01DX009 (ip), vehicle: Klucel (hydroxypropylcellulose) (HPC)); 92 % of control under setting [12]; 103 % of control under setting [13].
For the compound `CC1(C)CC[C@H](C2=CC(=O)c3c(O)ccc(O)c3C2=O)O1`, the T/C is 99 % of control (dose: 1.25 mg/kg/injection, schedule: Q01DX009 (ip), vehicle: Klucel (hydroxypropylcellulose) (HPC)); 97 % of control (dose: 2.5 mg/kg/injection, schedule: Q01DX009 (ip), vehicle: Klucel (hydroxypropylcellulose) (HPC)); 97 % of control (dose: 5.0 mg/kg/injection, schedule: Q01DX009 (ip), vehicle: Klucel (hydroxypropylcellulose) (HPC)); 92 % of control (dose: 10.0 mg/kg/injection, schedule: Q01DX009 (ip), vehicle: Klucel (hydroxypropylcellulose) (HPC)); 93 % of control (dose: 20.0 mg/kg/injection, schedule: Q01DX009 (ip), vehicle: Klucel (hydroxypropylcellulose) (HPC)).
Regarding `COC(C(=O)C(O)C(C)O)C1CC2C=C3C=C(OC4CC(OC5CC(O)C(OC)C(C)O5)C(OC(C)=O)C(C)O4)C(C)C(=O)C3=C(O)C2=C(O)C1OC1CC(OC2CC(OC3CC(C)(O)C(O)C(C)O3)C(O)C(C)O2)C(O)C(C)O1` (stereo unspecified), the T/C is 108 % of control (dose: 0.25 mg/kg/injection, schedule: Q01DX009 (ip), vehicle: saline with Tween-80); 112 % of control (dose: 0.5 mg/kg/injection, schedule: Q01DX009 (ip), vehicle: saline with Tween-80); 110 % of control and 116 % of control (dose: 1.0 mg/kg/injection, schedule: Q01DX009 (ip), vehicle: saline with Tween-80); 157 % of control (dose: 2.6 mg/kg/injection, schedule: Q01DX009 (ip), vehicle: saline with Tween-80); 154 % of control and 167 % of control (dose: 4.0 mg/kg/injection, schedule: Q01DX009 (ip), vehicle: saline with Tween-80); 165 % of control (dose: 8.0 mg/kg/injection, schedule: Q01DX009 (ip), vehicle: saline with Tween-80).
On to `C/C(=N\O)C(=O)c1ccccc1`, for which the T/C is 100 % of control under setting [4], 100 % of control under setting [5] and 103 % of control under setting [6].
Turning to `CC(=O)OC1C(CO)OC2C1Oc1nc(=N)c(F)cn12` (stereo unspecified), the T/C runs as follows: (dose: 3.13 mg/kg/injection, schedule: Q01DX009 (ip), vehicle: saline) 88 % of control; under setting [1], 93 % of control; under setting [9], 90 % of control; under setting [10], 86 % of control; under setting [11], 91 % of control.
For the compound `CN1CCc2cc3c(cc2C(=O)Cc2ccc4c(c2C1)OCO4)OCO3`, the T/C by setting is: under setting [8], 115 % of control; (dose: 25.0 mg/kg/injection, schedule: Q04DX003 (ip), vehicle: saline with Tween-80) 117 % of control; under setting [7], 112 % of control; (dose: 50.0 mg/kg/injection, schedule: Q04DX003 (ip), vehicle: saline with Tween-80) 114 % of control; under setting [3], 105 % of control; (dose: 100.0 mg/kg/injection, schedule: Q04DX003 (ip), vehicle: saline with Tween-80) 94 % of control.
